In patent US6342219B1 (Board of Regents, The University of Texas System, priority 1999, dated 2002):

What was measured:
[1] = target: T1, VEGF (Homo sapiens, UniProt P15692); assay: Competition ELISA (epitope groups); assay type: binding
T1 sequence (P15692 27-191 isoform P15692-4): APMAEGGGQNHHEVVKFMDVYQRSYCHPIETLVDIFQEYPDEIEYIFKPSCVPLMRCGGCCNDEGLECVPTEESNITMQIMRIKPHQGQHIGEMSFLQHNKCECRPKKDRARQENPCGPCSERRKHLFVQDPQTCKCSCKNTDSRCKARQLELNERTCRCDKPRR
Procedure: Competition ELISA studies were performed by first labeling the antibodies with peroxidase according to the manufacturer's instructions (EZ-Link Activated Peroxidase, Pierce). […] Approximately 0.5-2.0 μg/ml of peroxidase labeled test antibody was incubated on the plate in the presence of either buffer alone, an irrelevant IgG, or the other anti-VEGF competing antibodies in a 10-100 fold excess.
The assay was done in triplicate at least twice for each combination of labeled and competitor antibody. Two antibodies were considered to be in the same epitope group if they cross-blocked each other's binding by greater than 80%.

[2] = tested on: tumor sections (endothelium, connective tissue, tumor cell); assay: Immunohistochemistry on frozen tumor sections (reactivity pattern); assay type: binding; design: key: EC = endothelium; CT = connective tissue; TC = tumor cell; NR = no reaction; conditions: acetone fixed frozen sections; 2C3 and 12D7 at 20 μg/ml, others 5-10 μg/ml
Procedure: Guinea pig line 10 hepatocellular carcinoma tumor cells (obtained from Dr. Ronald Neuman, NIH, Bethesda, Md.) were grown in strain 2 guinea pigs (NCI, Bethesda, Md.). The human tumors NCI-H358 non-small cell lung carcinoma (NSCLC), NCI-H460 NSCLC (both obtained from Dr. Adi Gazdar, UT Southwestern, Dallas, Tex.), HT29 colon adenocarcinoma (American Type Culture Collection), and L540CY Hodgkin's lymphoma (obtained from Professor V. Diehl, Cologne, Germany) were grown as xenografts in CB17 SCID mice (Charles River, Wilmington, Mass.).
Tumors were snap frozen in liquid nitrogen and stored at −70° C. Frozen samples of tumor specimens from patients were obtained from the National Cancer Institute Cooperative Human Tissue Network (Southern Division, Birmingham, Ala.). Immunohistochemistry was performed as described by Burrows et al. (1995). […]
The immunohistochemical reactivity of 3E7, GV39M, and 11B5 on NCI-H358 human NSCLC xenografts was determined and compared with control antibodies (an IgG of irrelevant specificity; A-20, a rabbit anti-VEGF antibody; and MECA 32, a rat anti-mouse endothelial cell antibody). […]

[3] = tested on: VEGFR1 (Flt-1/Fc); assay: ELISA of VEGF binding to VEGFR1-coated wells
Procedure: FIG. 2. […] The plate was then incubated with rabbit anti-VEGF (A-20, Santa Cruz Biotechnology, Inc.) at 1 μg/ml and developed using a peroxidase conjugated goat anti-rabbit antibody. Assays were performed in triplicate. Mean percent binding in the absence of antibody is shown, together with the standard deviation.
The assay was also performed by coating wells of a microtiter plate with either control or test IgG.

[4] = tested on: HT1080 fibrosarcoma; assay: Treatment of established HT1080 xenografts (FIG. 5B); assay type: in vivo, nu/nu mice; conditions: 100 μg every two days
Procedure: FIG. 5A and FIG. 5B. […] Treatments (T) were 100 μg of the IgG given i.p., except for the initial treatment that consisted of 500 μg of the IgG given i.v. Mean tumor volume along with the SEM is shown. At the end of the study (day 116), the mice were sacrificed and the tumors dissected out and weighed. […] The mice were treated every other day as indicated (T). […] Mean tumor volume along with the SE is shown.
Male nu/nu mice bearing subcutaneous NCI-H358 tumors or HT1080 fibrosarcoma 200-400 mm^3 in size were injected i.p. with test or control antibodies. The NCI-H358 bearing mice were treated with 100 μg of antibodies per injection three times a week during the first week and twice a week during the second and third week. The mice were then switched to 50 μg per injection every five days. The HT1080 bearing mice were treated with 100 μg of the indicated antibody or saline every other day throughout the duration of the study. In both studies, mice were sacrificed when their tumors reached 2500 mm^3 in size or earlier if tumors began to ulcerate.

## 2C3: anti-VEGF monoclonal antibody, IgG2a, k, produced by hybridoma ATCC PTA 1595; blocks VEGF binding to VEGFR2 but not VEGFR1 [Clone 2C3]
[1]
  Cross-reactivity of 2C3 and A4.6.1 in competition studies: not cross-reactive
[1]; determined through competitive ELISA
  Epitope Group: 4
[2]
  Reactivity (immunohistochemical pattern on tumor sections): NR
[3]
  Blocks VEGF from binding to VEGFR1: No
[4]
  Effect on growth of HT1080 tumors: arrested the growth of the tumors
